For one molecule, kcat and kcat/KM results are on record in US9556460B2, “Method for the production of 3-hydroxy-3-methylbutyric acid from acetone and an activated acetyl compound” (Scientist of Fortune, S.A., priority 2009, dated 2017).

Common to all, as to type: biochemical
Settings in all cases: acetyl-CoA constant 10 mM, 40 mM Tris-HCl pH 8, 2 mM MgCl2, 37° C., 40 h

Assay [1] addresses Staphylococcus epidermidis HMG-CoA synthase, Q8CN06, SEQ ID NO: 11 (Staphylococcus epidermidis, UniProt Q9FD76). Nature of the assay: Kinetic parameters for the enzymatic reaction between acetyl-CoA and acetone, HMG-CoA synthase of Staphylococcus epidermidis. The procedure:
(§1) Kinetic Parameters for the Enzymatic Reaction Between Acetyl-CoA and Acetone in the Case of HMG Synthases
(§2) The kinetic parameters were measured using a variable concentration of acetone and a constant concentration of acetyl-CoA (10 mM) in following conditions:
(§3) The final pH was adjusted to 8.
(§4) The reaction was initiated by the addition of 3 mg of purified enzyme to the 1 ml reaction mixture. The mixture was then incubated without shaking at 37° C. for 40 h.
(§5) Analysis of 3-hydroxy-3-methylbutyrate Production
(§6) Thermochemical conditions leading to the decomposition of 3-hydroxy-3-methylbutyrate into isobutene were applied (Pressman et al., JACS, 1940, 2069-2080): the pH of the reaction mixtures was first adjusted to pH 4 using 6N HCl and the samples were then transferred into gas chromatography vials (Interchim). The vials were sealed and incubated at 110° C. for 4 hours, thus leading to the decomposition of 3-hydroxy-3-methylbutyrate into isobutene.
(§7) The calibration curve was prepared in the same conditions using commercial 3-hydroxy-3-methylbutyrate.
(§8) One milliliter of headspace gas was collected and injected into a HP5890 gas chromatograph (HP) equipped with a FID detector and a CP SilicaPlot® column (chromatography column; Varian). Commercial isobutene was used as reference. From the isobutene signal the amount of 3-hydroxy-3-methylbutyrate initially present in the sample was calculated.

For assay [2], the target named is T1, Gallus gallus (Chicken) HMG-CoA synthase, cytoplasmic, P23228, SEQ ID NO: 7 (Gallus gallus, UniProt P23228).
T1 construct: made in house; host or cells: E. coli BL21
T1 sequence (P23228 1-522): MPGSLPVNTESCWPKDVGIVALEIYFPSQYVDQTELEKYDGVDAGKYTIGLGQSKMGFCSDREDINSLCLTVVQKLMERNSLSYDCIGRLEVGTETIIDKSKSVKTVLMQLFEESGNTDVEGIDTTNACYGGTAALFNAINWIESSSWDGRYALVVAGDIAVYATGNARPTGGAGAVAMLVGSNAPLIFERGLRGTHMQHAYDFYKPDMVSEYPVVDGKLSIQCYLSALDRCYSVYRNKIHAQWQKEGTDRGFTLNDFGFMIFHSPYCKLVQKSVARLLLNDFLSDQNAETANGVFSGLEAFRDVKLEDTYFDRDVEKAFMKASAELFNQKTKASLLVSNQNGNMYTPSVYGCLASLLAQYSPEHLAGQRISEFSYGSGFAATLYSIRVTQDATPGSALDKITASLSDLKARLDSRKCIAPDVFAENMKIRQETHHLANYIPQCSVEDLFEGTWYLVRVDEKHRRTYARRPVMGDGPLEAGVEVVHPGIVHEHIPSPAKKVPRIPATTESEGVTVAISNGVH
Nature of the assay: Kinetic parameters for the enzymatic reaction between acetyl-CoA and acetone, HMG-CoA synthase of Gallus gallus. As to the method: as §1, §2, §3, §4, §5, §6, §7, §8

Assay [3] deals with T2, Schizosaccharomyces pombe (Fission yeast) HMG-CoA synthase, cytoplasmic, P54874, SEQ ID NO: 2 (Schizosaccharomyces pombe, UniProt P54874).
T2 construct: made in house; host or cells: E. coli BL21
T2 sequence (P54874 1-447): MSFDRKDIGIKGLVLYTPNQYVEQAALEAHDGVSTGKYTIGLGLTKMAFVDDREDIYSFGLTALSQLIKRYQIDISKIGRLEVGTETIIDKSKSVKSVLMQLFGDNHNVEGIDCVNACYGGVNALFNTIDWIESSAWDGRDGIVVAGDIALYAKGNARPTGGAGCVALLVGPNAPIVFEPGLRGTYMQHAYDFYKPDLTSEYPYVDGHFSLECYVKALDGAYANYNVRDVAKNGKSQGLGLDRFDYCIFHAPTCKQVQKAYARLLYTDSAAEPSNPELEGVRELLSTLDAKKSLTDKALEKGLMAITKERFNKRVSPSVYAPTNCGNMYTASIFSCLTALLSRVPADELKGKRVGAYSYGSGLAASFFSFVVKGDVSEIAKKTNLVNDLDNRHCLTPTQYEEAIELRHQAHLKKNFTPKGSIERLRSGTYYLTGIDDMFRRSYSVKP
Description: Kinetic parameters for the enzymatic reaction between acetyl-CoA and acetone, HMG-CoA synthase of Schizosaccharomyces pombe. As to the method:
as §1, §2, §3, §4, §5, §6, §7, §8

Chain of Staphylococcus epidermidis HMG-CoA synthase, Q8CN06, SEQ ID NO: 11 (Q9FD76 entry or part of it, one chain of several): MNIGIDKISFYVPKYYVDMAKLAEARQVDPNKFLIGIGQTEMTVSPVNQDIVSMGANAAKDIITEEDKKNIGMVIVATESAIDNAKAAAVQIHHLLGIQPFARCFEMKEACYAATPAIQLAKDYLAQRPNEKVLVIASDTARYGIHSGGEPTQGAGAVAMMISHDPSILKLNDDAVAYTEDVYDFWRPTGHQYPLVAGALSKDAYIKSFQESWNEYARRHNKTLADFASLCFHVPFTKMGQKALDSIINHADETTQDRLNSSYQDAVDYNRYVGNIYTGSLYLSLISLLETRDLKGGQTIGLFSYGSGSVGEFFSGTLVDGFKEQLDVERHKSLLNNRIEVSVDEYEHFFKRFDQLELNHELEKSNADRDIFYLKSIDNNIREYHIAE

Consider `CC(C)=O` [acetone], for which the kcat is 0.6 × 10^−4, sec^−1 in assay [1] (0-1 M acetone); 5 × 10^−4, sec^−1 in assay [2] (0-1 M acetone); 0.2 × 10^−4, sec^−1 in assay [3] (0-1 M acetone). Besides, the kcat/KM in assay [1] (acetone) is 0.3 × 10^−6, mM^−1 × sec−^1; in assay [2] (acetone), 2 × 10^−6, mM^−1 × sec−^1; in assay [3] (acetone), 0.1 × 10^−6, mM^−1 × sec−^1.
